For one molecule, Activity results are on record in ChEMBL document CHEMBL1138327, “Metal-based paullones as putative CDK inhibitors for antitumor chemotherapy” (2007).

Each structure is given as a SMILES string.

Holding throughout (format): functional
The subject of assay [1] is A549. In words: Cell cycle arrest in human A549 cells assessed as accumulation at G2/M phase at 30 nM after 24 hrs by flow cytometry.
In assay [2] the test system is A549. In words: Cell cycle arrest in human A549 cells assessed as accumulation at G0/G1 phase at 30 nM after 24 hrs by flow cytometry. A general note: Flow cytometry measures light scatter and fluorescence of single cells or particles in a stream.
For assay [3], the system named is A549. In words: Cell cycle arrest in human A549 cells assessed as accumulation at S phase at 30 nM after 24 hrs by flow cytometry.

On to `CN[C@@H]1C[C@H]2O[C@@](C)([C@@H]1OC)n1c3ccccc3c3c4c(c5c6ccccc6n2c5c31)C(=O)NC4` [STAUROSPORINE], for which the figures for the Activity in the assay on A549 [1], in the assay on A549 [2] and in the assay with A549 [3] were 9.1%, 74.6% and 16.4%, respectively.
